Where “and” joins values, the source holds several entries; their conditions need not be identical. Equal entries are not always repeated. Inconclusive results and toxic doses are left out. Cut-off read from the data, not from the text of the source: active = T/C of 150% or more; inactive = T/C below 125%.
Test system: L1210 leukemia ip in BDF1 mice, survival T/C
Experiment: NCI In Vivo Anticancer Drug Screen. Data for tumor model L1210 Leukemia (intraperitoneal) in B6D2F1 (BDF1) mice
Conditions: endpoint: mean survival time, higher = longer survival
Outline: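 Antitumor effect is assessed in tumor-bearing animals. Survival in the compound arm is compared with a vehicle-dosed control arm and expressed as their quotient.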

[1] = dose: 100.0 mg/kg/injection, schedule: Q01DX001 (ip), vehicle: saline
[2] = dose: 200.0 mg/kg/injection, schedule: Q01DX001 (ip), vehicle: saline
[3] = dose: 400.0 mg/kg/injection, schedule: Q01DX001 (ip), vehicle: saline
[4] = dose: 25.0 mg/kg/injection, schedule: Q01DX009 (ip), vehicle: saline with Tween-80
[5] = dose: 50.0 mg/kg/injection, schedule: Q01DX009 (ip), vehicle: saline with Tween-80
[6] = dose: 100.0 mg/kg/injection, schedule: Q04DX003 (ip), vehicle: saline with Tween-80
[7] = dose: 100.0 mg/kg/injection, schedule: Q01DX001 (ip), vehicle: carboxymethylcellulose (CMC)
[8] = dose: 200.0 mg/kg/injection, schedule: Q01DX001 (ip), vehicle: carboxymethylcellulose (CMC)
[9] = dose: 400.0 mg/kg/injection, schedule: Q01DX001 (ip), vehicle: carboxymethylcellulose (CMC)
[10] = dose: 100.0 mg/kg/injection, schedule: Q04DX002 (ip), vehicle: Klucel (hydroxypropylcellulose) (HPC)
[11] = dose: 200.0 mg/kg/injection, schedule: Q04DX002 (ip), vehicle: Klucel (hydroxypropylcellulose) (HPC)
[12] = dose: 400.0 mg/kg/injection, schedule: Q04DX002 (ip), vehicle: Klucel (hydroxypropylcellulose) (HPC)
[13] = dose: 200.0 mg/kg/injection, schedule: Q01DX009 (ip), vehicle: saline with Tween-80
[14] = dose: 100.0 mg/kg/injection, schedule: Q01DX009 (ip), vehicle: saline with Tween-80

Measured: T/C

COC(=O)CCN1CCN(c2ccccc2)CC1
inactive: [1] 98 % of control | [2] 98 % of control | [3] 97 % of control

CC(=O)Nc1cccc2c1C(=O)c1c(c(O)c3ccccc3c1O)C2=O
inactive: dose: 0.12 mg/kg/injection, schedule: Q01DX009 (ip), vehicle: Klucel (hydroxypropylcellulose) (HPC) 101 % of control | dose: 0.25 mg/kg/injection, schedule: Q01DX009 (ip), vehicle: Klucel (hydroxypropylcellulose) (HPC) 100 % of control | dose: 0.25 mg/kg/injection, schedule: Q04DX003 (ip), vehicle: Klucel (hydroxypropylcellulose) (HPC) 97 % of control | dose: 0.5 mg/kg/injection, schedule: Q01DX009 (ip), vehicle: Klucel (hydroxypropylcellulose) (HPC) 102 % of control | dose: 0.5 mg/kg/injection, schedule: Q04DX003 (ip), vehicle: Klucel (hydroxypropylcellulose) (HPC) 97 % of control | dose: 1.0 mg/kg/injection, schedule: Q01DX009 (ip), vehicle: Klucel (hydroxypropylcellulose) (HPC) 97 % of control | dose: 1.0 mg/kg/injection, schedule: Q04DX003 (ip), vehicle: Klucel (hydroxypropylcellulose) (HPC) 97 % of control | dose: 2.0 mg/kg/injection, schedule: Q01DX009 (ip), vehicle: Klucel (hydroxypropylcellulose) (HPC) 98 % of control | dose: 2.0 mg/kg/injection, schedule: Q04DX003 (ip), vehicle: Klucel (hydroxypropylcellulose) (HPC) 101 % of control | dose: 2.0 mg/kg/injection, schedule: Q04DX003 (ip), vehicle: water 95 % of control | dose: 3.12 mg/kg/injection, schedule: Q01DX009 (ip), vehicle: saline with Tween-80 102 % of control | dose: 4.0 mg/kg/injection, schedule: Q01DX009 (ip), vehicle: Klucel (hydroxypropylcellulose) (HPC) 105 % of control | dose: 4.0 mg/kg/injection, schedule: Q04DX003 (ip), vehicle: water 100 % of control | dose: 6.25 mg/kg/injection, schedule: Q01DX009 (ip), vehicle: saline with Tween-80 100 % of control | dose: 8.0 mg/kg/injection, schedule: Q04DX003 (ip), vehicle: water 102 % of control | dose: 12.5 mg/kg/injection, schedule: Q01DX009 (ip), vehicle: saline with Tween-80 97 % of control | dose: 12.5 mg/kg/injection, schedule: Q04DX003 (ip), vehicle: saline with Tween-80 100 % of control | dose: 16.0 mg/kg/injection, schedule: Q04DX003 (ip), vehicle: water 96 % of control and 103 % of control | [4] 102 % of control | dose: 25.0 mg/kg/injection, schedule: Q04DX003 (ip), vehicle: saline with Tween-80 96 % of control | dose: 32.0 mg/kg/injection, schedule: Q04DX003 (ip), vehicle: water 96 % of control | [5] 96 % of control | dose: 50.0 mg/kg/injection, schedule: Q04DX003 (ip), vehicle: saline with Tween-80 103 % of control | dose: 64.0 mg/kg/injection, schedule: Q04DX003 (ip), vehicle: water 97 % of control | [6] 96 % of control

CC(=S)Oc1cccc(C)c1
inactive: dose: 50.0 mg/kg/injection, schedule: Q01DX001 (ip), vehicle: carboxymethylcellulose (CMC) 102 % of control | [7] 98 % of control | [8] 96 % of control | [9] 104 % of control

O=[N+]([O-])c1ccc(OCn2ncc3ccc([N+](=O)[O-])cc32)cc1
inactive: [7] 93 % of control | [8] 98 % of control | [9] 88 % of control

C=CCN(CC=C)C(=O)Nc1ccc(C(=O)N/N=C/c2cccc(OC)c2OC)cc1
inactive: dose: 100.0 mg/kg/injection, schedule: Q01DX009 (ip), vehicle: Klucel (hydroxypropylcellulose) (HPC) 103 % of control and 88 % of control | [10] 95 % of control and 105 % of control | dose: 200.0 mg/kg/injection, schedule: Q01DX009 (ip), vehicle: Klucel (hydroxypropylcellulose) (HPC) 100 % of control and 88 % of control | [11] 94 % of control and 101 % of control | dose: 400.0 mg/kg/injection, schedule: Q01DX009 (ip), vehicle: Klucel (hydroxypropylcellulose) (HPC) 95 % of control | [12] 97 % of control and 105 % of control

CCOC(=O)/C=C/c1cccc(O)c1
inactive: dose: 100.0 mg/kg/injection, schedule: Q01DX001 (ip), vehicle: gum acacia 106 % of control | dose: 200.0 mg/kg/injection, schedule: Q01DX001 (ip), vehicle: gum acacia 110 % of control | dose: 400.0 mg/kg/injection, schedule: Q01DX001 (ip), vehicle: gum acacia 97 % of control

Fc1ccc(NC(=S)SCc2ccc(Cl)c(Cl)c2)cc1F
inactive: [5] 108 % of control | [6] 102 % of control | [13] 112 % of control | dose: 200.0 mg/kg/injection, schedule: Q04DX003 (ip), vehicle: saline with Tween-80 106 % of control

CC1(C)N=C(N)N=C(N)N1c1cccc(OCCOc2ccc(NC(=O)/C=C/C(=O)O)cc2)c1
inactive: [7] 101 % of control | [8] 97 % of control | [9] 94 % of control

CSc1ccc(NC(=O)C(C)Oc2ccccc2)cc1 (centres undefined)
inactive: dose: 50.0 mg/kg/injection, schedule: Q01DX001 (ip), vehicle: saline with Tween-80 95 % of control | dose: 100.0 mg/kg/injection, schedule: Q01DX001 (ip), vehicle: saline with Tween-80 87 % of control and 92 % of control | [14] 97 % of control and 102 % of control | dose: 100.0 mg/kg/injection, schedule: Q04DX002 (ip), vehicle: saline with Tween-80 94 % of control and 96 % of control | dose: 200.0 mg/kg/injection, schedule: Q01DX001 (ip), vehicle: saline with Tween-80 87 % of control | [13] 93 % of control and 102 % of control | dose: 200.0 mg/kg/injection, schedule: Q04DX002 (ip), vehicle: saline with Tween-80 96 % of control and 105 % of control | dose: 400.0 mg/kg/injection, schedule: Q01DX001 (ip), vehicle: saline with Tween-80 87 % of control and 90 % of control | dose: 400.0 mg/kg/injection, schedule: Q01DX009 (ip), vehicle: saline with Tween-80 95 % of control and 98 % of control | dose: 400.0 mg/kg/injection, schedule: Q04DX002 (ip), vehicle: saline with Tween-80 96 % of control and 101 % of control

Cc1cccc(NC(=O)Nc2ccccc2Cl)n1
inactive: [10] 87 % of control | [11] 87 % of control | [12] 90 % of control

O=[N+]([O-])Cc1c2ccccc2nc2ccccc12
inactive: [5] 87 % of control | [14] 87 % of control | [13] 87 % of control

CC12CCC3c4ccc(OCC5CO5)cc4CCC3C1CCC2=O (centres undefined)
inactive: [5] 97 % of control | [14] 97 % of control | [13] 94 % of control

CCC(C(=O)O)C(C)(C)O (centres undefined)
inactive: [1] 93 % of control | [2] 93 % of control | [3] 103 % of control

N=C(N)SCc1ccc(Cl)cc1Cl
inactive: [4] 100 % of control | [5] 96 % of control | [14] 98 % of control | [10] 96 % of control | [11] 89 % of control | [12] 96 % of control

From PubChem BioAssay AID248 (DTP/NCI, 2004)
